Results on 61 molecules are retold here after ChEMBL document CHEMBL1157539, “Thousands of chemical starting points for antimalarial lead identification” (Nature, 2010).

This assay relates to Plasmodium falciparum. Kind of assay: GSK_TCMDC: Inhibition of Plasmodium falciparum 3D7 in whole erythrocytes, using parasite LDH activity as an index of growth. In kind it is functional, organism-based. To be noted: Plasmodium falciparum, 3D7.
In turn, `CS(=O)(=O)CCNCc1ccc(-c2cc3c(Nc4ccc(OCc5cccc(F)c5)c(Cl)c4)ncnc3s2)[nH]1` showed an XC50 of 844 nM.

`C/C=C/COc1ccc(-c2c(C)[nH]c(C)c(Cl)c2=O)cc1` showed an XC50 of 197 nM.

In the case of `OC1CCCN(Cc2ccc(-c3cccc(-c4nc5ccccc5[nH]4)c3)cc2)C1` (stereo unspecified), the XC50 stood at 1340 nM.

Molecule `CC(C)(C)n1nnnc1C(c1cccnc1)N(Cc1ccccc1)Cc1ccc(Cl)cc1` (stereo unspecified) came in with an XC50 of 744 nM.

For `CN1CCN(c2ccc3[nH]c(-c4ccc5[nH]c(-c6ccc(O)cc6)nc5c4)nc3c2)CC1`, the XC50 stood at 121 nM.

Molecule `Cc1nn(C)c(C)c1CN(Cc1nc(-c2cccc(Oc3ccccc3)c2)oc1C)C1CC1` registered an XC50 of 392 nM.

For the molecule `C[C@H](NC(=O)c1c(CN2CCC(N3CCCCC3)CC2)c(-c2ccccc2)nc2cc(O)ccc12)C1CCCCC1`, the XC50 was 759 nM.

As for `CCCC(C)N(Cc1ccc(C(C)(C)C)cc1)C(=O)c1cccc(OC)c1` (stereo unspecified), the XC50 was determined as 336 nM.

`Cc1nc(Nc2ccncc2)cc(-c2ccncc2)n1` gave an XC50 of 725 nM.

As to `CC(Cc1ccc(CSC(C)C)cc1)NCC(O)c1cccc(Cl)c1` (stereo unspecified), the XC50 turned out to be 603 nM.

`Cc1[nH]c(C)c(-c2ccc(OCc3cc(F)cc(F)c3)nc2)c(=O)c1Br` came in with an XC50 of 103 nM.

`O=C(NCc1cccc(F)c1)Nc1ccc(-c2cccc(-c3nc4cc(F)ccc4[nH]3)c2)cc1` registered an XC50 of 772 nM.

In turn, `CC(C)C(=O)NC(c1ccc(N(C)C)cc1)c1cc(Cl)c2cccnc2c1O` (stereo unspecified) gave an XC50 of 859 nM.

Take `COc1ccc(NC(=O)[C@H](Cc2ccccc2)Nc2cc(C)nc(NCCc3cccs3)n2)cc1`: the XC50 was 749 nM.

The molecule `O=C(Nc1ccccc1F)NC1CCN(c2ccnc(Nc3ccc(F)cc3)n2)C1` (stereo unspecified) yielded an XC50 of 854 nM.

For `CN(C)CCN1CCN(Cc2cccc(-c3csc(-c4nc5ccccc5[nH]4)c3)c2)CC1`, the XC50 stood at 398 nM.

Consider `COc1ccc(CNCc2ccc(-c3ccc(CNCCc4ccccc4)cn3)cc2)cn1`, for which the XC50 came to 1010 nM.

Molecule `CN1CCCC(CN2CCN(Cc3cccc(-c4cccc(-c5nc6ccccc6[nH]5)c4)c3)CC2)C1` (stereo unspecified) returned an XC50 of 139 nM.

Molecule `COC(=O)C(C)NCC(=O)c1ccccc1` (stereo unspecified) showed an XC50 of 115 nM.

Consider `Cc1c(CNCCCNc2cc(=O)c3ccccc3[nH]2)sc(/C=N/O)c1Br`, for which the XC50 came out at 1080 nM.

As to `CN(C(=O)C(C)(C)Oc1ccc(Cl)cc1)C1CCN(CCCCCNC(=O)/C=C/c2ccc(Cl)c(Cl)c2)CC1`, the XC50 was found to be 916 nM.

For `CCNc1cc(C(=O)N[C@@H](Cc2ccccc2Cl)[C@H](O)CNC(C)CCCC(C)C)cc(N2CCCCS2(=O)=O)c1` (stereo partly specified), the XC50 was 928 nM.

The molecule `COc1cc(C2CCCCC2)c(OC)cc1CC1c2cc(O)c(Cl)cc2CCN1C` (stereo unspecified) registered an XC50 of 449 nM.

Consider `Oc1ccc(Br)cc1C(O)CNCc1ccccc1OCc1ccccc1` (stereo unspecified), for which the XC50 came to 167 nM.

`O=C(/C=C/c1cccc(Cl)c1)NCCCCCN1CCC(c2c[nH]c3ccccc23)CC1` had an XC50 of 988 nM.

Molecule `COc1ccc(C(=O)O)cc1OCc1ccccc1` registered an XC50 of 819 nM.

`c1ccc(OCCCCN2CCCCC2)cc1` had an XC50 of 537 nM.

As for `CCC(C)NC(=O)Nc1ccc(-c2cccc(-c3nc4cc(C(F)(F)F)ccc4[nH]3)c2)cc1` (stereo unspecified), the XC50 came out at 624 nM.

`CO/C(=C\C=C\c1cc2cc(Cl)c(Cl)cc2[nH]1)C(=O)NCCCN1CCCC[C@H]1C`: the XC50 was found to be 791 nM.

With `COc1cccc(Nc2c(C(N)=O)cnc3ccc(-c4ccccc4)cc23)c1`, the XC50 was determined as 771 nM.

Take `COc1c(C2CCN(CCCCNC(=O)c3ccc(-c4ccc(C#N)cc4)cc3)CC2)ccc2c1C(C)(C)CCC2(C)C`: the XC50 worked out at 411 nM.

For the molecule `O=C(/C=C/c1ccc(Cl)c(Cl)c1)NCCCCCN1CCC(NC(=O)Nc2ccc(Cl)cc2F)CC1`, the XC50 stood at 313 nM.

The molecule `CN(C)c1ccc(-c2csc(C(=O)NCC3CCN(Cc4cccc(C(F)(F)F)c4)C3)c2)cc1` (stereo unspecified) displayed an XC50 of 843 nM.

In turn, `COC(=O)c1ccc(NC(=O)c2ccc(CCN3CCC(c4nc(COCC(F)(F)F)c(-c5ccc(F)cc5)o4)CC3)cc2)cc1` displayed an XC50 of 1040 nM.

As to `Cc1ccc(-n2c(=O)c3cccnc3n2CC(=O)Nc2cccc(C)c2C)cc1`, the XC50 stood at 865 nM.

As to `Cc1nc(NCc2ccccc2)cc(Nc2cc(NCc3ccccc3)nc(C)n2)n1`, the XC50 was found to be 971 nM.

For `CCOc1ccc(C(C)NC(=O)Cc2ccccc2F)cc1OCC` (stereo unspecified), the XC50 was determined as 844 nM.

In turn, `CC(C)c1ccc(S(=O)(=O)N(c2ccc3c(c2)OCO3)C2CCN(Cc3ccccc3)C2)cc1` (stereo unspecified) yielded an XC50 of 350 nM.

`Cc1cccc2nc(-c3cccc(-c4ccc(NC(=O)NC(C)C)cc4)c3)[nH]c12` yielded an XC50 of 754 nM.

`CN(C)CCNCc1cccc(-c2ccc3c(Nc4ccc(Oc5ccccn5)cc4)ccnc3c2)c1` had an XC50 of 233 nM.

In turn, `NC(=O)c1ccccc1OCC(=O)Nc1cccc(-c2cccc(-c3nc4ccccc4[nH]3)c2)c1` had an XC50 of 376 nM.

Regarding `COc1ccc2ncc(F)c(CCN3CCC(NCc4cnc5c(c4)NC(=O)CS5)CC3)c2c1`, the XC50 was determined as 575 nM.

`CCCCOc1c(CCNCCCCNCCc2cc(F)c3ccccc3c2OCCCC)cc(F)c2ccccc12` displayed an XC50 of 629 nM.

Molecule `N#Cc1ccc(CN2CCC(NC(=O)c3ccc(-c4nnc(-c5cccc6ccccc56)o4)cc3)CC2)cc1` registered an XC50 of 684 nM.

The molecule `COc1ccc(Nc2nccc(-c3c(-c4cccc(NC(=O)c5c(F)cccc5F)c4)nn4ccccc34)n2)cc1Cl` showed an XC50 of 284 nM.

Turning to `Fc1ccc2[nH]c(-c3ccc(-c4ccc(CNCCc5ccncc5)cc4)s3)nc2c1`, the XC50 was found to be 142 nM.

`COc1ccc(C(=O)Nc2ccc(Nc3nc(C)cc(N(C)C)n3)cc2)c(OC)c1` gave an XC50 of 868 nM.

With `COc1cc2nc(N3CCN(c4cc(C)ccc4C)CC3)nc(N)c2cc1OC`, the XC50 was determined as 851 nM.

For `CC(=O)N(C)/N=C/[C@H](CCc1ccccc1)NC(=O)[C@H](CC(C)C)NC(=O)c1cccc(OCCN2CCOCC2)c1`, the XC50 amounted to 332 nM.

`COc1cc(C(=O)N2C(c3nccs3)C(C(=O)N(OC)C(C)c3ccccc3)CC2(CC(C)C)C(=O)OC(C)(C)C)ccc1C(C)(C)C` (stereo unspecified) had an XC50 of 1070 nM.

For `C[C@H](Cc1ccc(OCCCCCCOc2ccc(C[C@@H](C)NC[C@H](O)c3cccc(Cl)c3)cc2)cc1)NC[C@H](O)c1cccc(Cl)c1`, the XC50 is 296 nM.

In turn, `CCc1ccc(CNCC(CCNc2cc(=O)c3ccccc3[nH]2)NCc2cc(Br)cc(Br)c2)o1` (stereo unspecified) yielded an XC50 of 638 nM.

For the molecule `CC(C)Sc1nc(-c2ccccc2)nc2c1COC(C)(C)C2`, the XC50 is 857 nM.

In the case of `CN(C)c1ccc(C=C2SC(=O)N=C2Nc2ccccc2)cc1`, the XC50 amounted to 32.1 nM.

For the molecule `CC(C)C[C@H](NC(=O)c1cc(-c2ccc(F)cc2)no1)C(=O)O.CC(C)C[C@H](NC(=O)c1conc1-c1ccc(F)cc1)C(=O)O`, the XC50 turned out to be 979 nM.

`Cc1ccc(O)c(C(=O)c2cc(C(=O)Nc3ccccc3C)c(=O)n(-c3ccccc3C)c2)c1` showed an XC50 of 784 nM.

In the case of `CC(=O)Nc1ccc(CN2CCC(N(C)c3cc(NC(=O)c4ccc(F)cc4)ccn3)CC2)cc1`, the XC50 turned out to be 1120 nM.

Molecule `O=C(CN1CCCCC1)Nc1ccc(Nc2nccc(NCC(O)c3ccccc3)n2)cc1` (stereo unspecified) displayed an XC50 of 583 nM.

Consider `COC(=O)c1cccc(CNCc2cccc(-c3ccc(-c4nc5ccccc5[nH]4)s3)c2)c1`, for which the XC50 was 491 nM.

In turn, `CC[C@H](C)CNC(=O)c1cncc(-c2ccc(CNCC3CNCCCO3)cc2)c1` (stereo partly specified) came in with an XC50 of 1020 nM.

For `Nc1nc(N)c2c(CCc3ccc4ccccc4c3)cccc2n1`, the XC50 turned out to be 693 nM.
